From ChEMBL document CHEMBL1150976, “The selectivity of protein kinase inhibitors: a further update” (Biochem J, 2007)

Key:
[1] = molecular target: Dual specificity tyrosine-phosphorylation-regulated kinase 1A (Homo sapiens) (UniProt Q13627); assay: Percentage DYRK1A activity remaining in the presence of 2uM inhibitor; conditions: filed as antagonist
[2] = molecular target: T1, Mitogen-activated protein kinase 15 (Homo sapiens) (UniProt Q8TD08); assay: Percentage ERK8 activity remaining in the presence of 2uM inhibitor; conditions: filed as antagonist
T1 sequence (whole entry): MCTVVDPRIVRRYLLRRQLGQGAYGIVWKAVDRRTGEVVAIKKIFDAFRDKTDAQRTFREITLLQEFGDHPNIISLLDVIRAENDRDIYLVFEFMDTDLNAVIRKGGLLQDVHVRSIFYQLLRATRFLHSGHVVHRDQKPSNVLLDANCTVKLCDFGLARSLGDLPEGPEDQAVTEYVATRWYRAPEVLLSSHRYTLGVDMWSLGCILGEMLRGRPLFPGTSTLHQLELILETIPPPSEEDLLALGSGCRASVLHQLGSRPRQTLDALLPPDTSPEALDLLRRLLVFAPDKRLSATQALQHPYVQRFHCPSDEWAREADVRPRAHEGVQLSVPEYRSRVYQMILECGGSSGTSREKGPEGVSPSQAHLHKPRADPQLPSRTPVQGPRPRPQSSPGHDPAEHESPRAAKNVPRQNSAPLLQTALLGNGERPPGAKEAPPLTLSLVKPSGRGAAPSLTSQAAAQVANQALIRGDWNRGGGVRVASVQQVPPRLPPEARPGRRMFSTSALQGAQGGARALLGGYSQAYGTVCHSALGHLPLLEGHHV

[3] = molecular target: Homeodomain-interacting protein kinase 2 (Homo sapiens) (UniProt Q9H2X6); assay: Percentage HIPK2 activity remaining in the presence of 2uM inhibitor; conditions: filed as antagonist
Chain of Homeodomain-interacting protein kinase 2 (Homo sapiens) (Q9H2X6 whole entry, looked up): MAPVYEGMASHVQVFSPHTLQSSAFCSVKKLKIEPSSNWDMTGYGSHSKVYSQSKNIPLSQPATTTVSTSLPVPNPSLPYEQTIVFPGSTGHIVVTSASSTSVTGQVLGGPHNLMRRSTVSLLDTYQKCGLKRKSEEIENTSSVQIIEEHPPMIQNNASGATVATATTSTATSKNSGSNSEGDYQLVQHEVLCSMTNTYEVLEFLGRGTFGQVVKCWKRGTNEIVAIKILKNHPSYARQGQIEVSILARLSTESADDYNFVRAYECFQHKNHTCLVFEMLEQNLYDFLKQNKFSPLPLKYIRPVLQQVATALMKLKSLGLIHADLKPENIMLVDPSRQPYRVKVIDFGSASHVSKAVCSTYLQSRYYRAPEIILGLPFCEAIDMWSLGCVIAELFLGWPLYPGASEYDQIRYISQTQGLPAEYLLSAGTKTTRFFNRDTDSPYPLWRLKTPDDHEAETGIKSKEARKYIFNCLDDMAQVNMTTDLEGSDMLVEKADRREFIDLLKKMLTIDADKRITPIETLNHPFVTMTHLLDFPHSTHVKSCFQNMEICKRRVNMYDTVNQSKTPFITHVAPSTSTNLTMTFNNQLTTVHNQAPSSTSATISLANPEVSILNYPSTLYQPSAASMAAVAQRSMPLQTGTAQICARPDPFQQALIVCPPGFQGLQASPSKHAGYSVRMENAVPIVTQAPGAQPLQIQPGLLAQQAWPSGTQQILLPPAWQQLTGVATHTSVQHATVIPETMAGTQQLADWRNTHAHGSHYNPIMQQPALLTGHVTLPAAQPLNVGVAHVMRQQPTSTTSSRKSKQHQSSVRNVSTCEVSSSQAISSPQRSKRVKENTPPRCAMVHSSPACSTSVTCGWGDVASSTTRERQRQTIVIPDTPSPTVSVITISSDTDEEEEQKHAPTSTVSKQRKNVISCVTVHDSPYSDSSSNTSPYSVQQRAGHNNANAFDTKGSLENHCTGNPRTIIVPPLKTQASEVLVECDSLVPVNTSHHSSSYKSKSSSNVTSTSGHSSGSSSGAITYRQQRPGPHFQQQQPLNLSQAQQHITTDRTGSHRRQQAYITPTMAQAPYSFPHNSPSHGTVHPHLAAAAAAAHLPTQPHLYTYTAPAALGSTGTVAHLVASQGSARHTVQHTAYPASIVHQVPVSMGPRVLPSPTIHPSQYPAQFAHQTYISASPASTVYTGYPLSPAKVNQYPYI

[4] = molecular target: Maternal embryonic leucine zipper kinase (Homo sapiens) (UniProt Q14680); assay: Percentage MELK activity remaining in the presence of 2uM inhibitor
Chain of Maternal embryonic leucine zipper kinase (Homo sapiens) (Q14680 whole entry, looked up): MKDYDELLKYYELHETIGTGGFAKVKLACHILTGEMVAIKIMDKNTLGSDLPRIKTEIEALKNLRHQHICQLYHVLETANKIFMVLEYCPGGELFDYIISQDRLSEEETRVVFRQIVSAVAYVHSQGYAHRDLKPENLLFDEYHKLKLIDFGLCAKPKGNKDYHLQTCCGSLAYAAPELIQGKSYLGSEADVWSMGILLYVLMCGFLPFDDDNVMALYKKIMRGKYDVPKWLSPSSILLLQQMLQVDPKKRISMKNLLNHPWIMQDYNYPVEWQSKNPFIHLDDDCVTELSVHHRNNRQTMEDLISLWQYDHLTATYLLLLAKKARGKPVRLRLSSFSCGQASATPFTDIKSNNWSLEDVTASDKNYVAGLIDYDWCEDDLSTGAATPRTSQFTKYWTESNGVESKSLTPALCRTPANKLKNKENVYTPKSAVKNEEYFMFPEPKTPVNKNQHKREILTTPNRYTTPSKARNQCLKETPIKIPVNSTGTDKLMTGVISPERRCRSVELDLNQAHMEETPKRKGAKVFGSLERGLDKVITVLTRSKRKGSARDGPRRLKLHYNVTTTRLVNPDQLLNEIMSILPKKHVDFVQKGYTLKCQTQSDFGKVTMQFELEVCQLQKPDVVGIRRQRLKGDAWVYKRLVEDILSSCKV

[5] = molecular target: Mitogen-activated protein kinase 11 (Homo sapiens) (UniProt Q15759); assay: Percentage p38beta activity remaining in the presence of 2uM inhibitor
Chain of Mitogen-activated protein kinase 11 (Homo sapiens) (Q15759 whole entry): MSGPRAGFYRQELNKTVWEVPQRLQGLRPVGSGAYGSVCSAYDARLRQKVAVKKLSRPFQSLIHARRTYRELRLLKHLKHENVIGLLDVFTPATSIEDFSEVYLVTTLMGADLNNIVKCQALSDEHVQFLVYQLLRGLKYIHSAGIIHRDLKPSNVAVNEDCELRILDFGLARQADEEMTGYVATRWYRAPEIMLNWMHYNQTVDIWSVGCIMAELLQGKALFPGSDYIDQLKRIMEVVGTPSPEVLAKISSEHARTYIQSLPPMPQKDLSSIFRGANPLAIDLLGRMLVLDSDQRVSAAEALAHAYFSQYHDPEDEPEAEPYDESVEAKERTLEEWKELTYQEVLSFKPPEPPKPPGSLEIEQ

[6] = molecular target: SRSF protein kinase 1 (Homo sapiens) (UniProt Q96SB4); assay: Percentage SRPK1 activity remaining in the presence of 2uM inhibitor; conditions: filed as antagonist
Chain of SRSF protein kinase 1 (Homo sapiens) (Q96SB4 whole entry): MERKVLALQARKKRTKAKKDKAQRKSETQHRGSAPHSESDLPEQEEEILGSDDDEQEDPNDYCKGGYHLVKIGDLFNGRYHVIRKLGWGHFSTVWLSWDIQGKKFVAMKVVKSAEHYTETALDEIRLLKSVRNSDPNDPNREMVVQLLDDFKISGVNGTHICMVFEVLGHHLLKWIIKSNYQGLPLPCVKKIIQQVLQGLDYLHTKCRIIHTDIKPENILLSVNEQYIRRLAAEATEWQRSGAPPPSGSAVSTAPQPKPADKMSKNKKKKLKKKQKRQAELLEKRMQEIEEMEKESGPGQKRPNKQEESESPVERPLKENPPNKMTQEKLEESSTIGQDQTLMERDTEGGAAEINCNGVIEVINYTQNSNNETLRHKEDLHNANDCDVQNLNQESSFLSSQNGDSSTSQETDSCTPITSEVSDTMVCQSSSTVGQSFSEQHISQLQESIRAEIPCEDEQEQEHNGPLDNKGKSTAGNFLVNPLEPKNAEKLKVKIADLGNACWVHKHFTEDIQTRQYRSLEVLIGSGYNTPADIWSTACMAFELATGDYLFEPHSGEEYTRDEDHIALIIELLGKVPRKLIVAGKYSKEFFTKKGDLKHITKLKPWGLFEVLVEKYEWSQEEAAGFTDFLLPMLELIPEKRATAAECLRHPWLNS

[7] = molecular target: Homeodomain-interacting protein kinase 3 (Homo sapiens) (UniProt Q9H422); assay: Percentage HIPK3 activity remaining in the presence of 2uM inhibitor; conditions: filed as antagonist
Chain of Homeodomain-interacting protein kinase 3 (Homo sapiens) (Q9H422 whole entry, looked up): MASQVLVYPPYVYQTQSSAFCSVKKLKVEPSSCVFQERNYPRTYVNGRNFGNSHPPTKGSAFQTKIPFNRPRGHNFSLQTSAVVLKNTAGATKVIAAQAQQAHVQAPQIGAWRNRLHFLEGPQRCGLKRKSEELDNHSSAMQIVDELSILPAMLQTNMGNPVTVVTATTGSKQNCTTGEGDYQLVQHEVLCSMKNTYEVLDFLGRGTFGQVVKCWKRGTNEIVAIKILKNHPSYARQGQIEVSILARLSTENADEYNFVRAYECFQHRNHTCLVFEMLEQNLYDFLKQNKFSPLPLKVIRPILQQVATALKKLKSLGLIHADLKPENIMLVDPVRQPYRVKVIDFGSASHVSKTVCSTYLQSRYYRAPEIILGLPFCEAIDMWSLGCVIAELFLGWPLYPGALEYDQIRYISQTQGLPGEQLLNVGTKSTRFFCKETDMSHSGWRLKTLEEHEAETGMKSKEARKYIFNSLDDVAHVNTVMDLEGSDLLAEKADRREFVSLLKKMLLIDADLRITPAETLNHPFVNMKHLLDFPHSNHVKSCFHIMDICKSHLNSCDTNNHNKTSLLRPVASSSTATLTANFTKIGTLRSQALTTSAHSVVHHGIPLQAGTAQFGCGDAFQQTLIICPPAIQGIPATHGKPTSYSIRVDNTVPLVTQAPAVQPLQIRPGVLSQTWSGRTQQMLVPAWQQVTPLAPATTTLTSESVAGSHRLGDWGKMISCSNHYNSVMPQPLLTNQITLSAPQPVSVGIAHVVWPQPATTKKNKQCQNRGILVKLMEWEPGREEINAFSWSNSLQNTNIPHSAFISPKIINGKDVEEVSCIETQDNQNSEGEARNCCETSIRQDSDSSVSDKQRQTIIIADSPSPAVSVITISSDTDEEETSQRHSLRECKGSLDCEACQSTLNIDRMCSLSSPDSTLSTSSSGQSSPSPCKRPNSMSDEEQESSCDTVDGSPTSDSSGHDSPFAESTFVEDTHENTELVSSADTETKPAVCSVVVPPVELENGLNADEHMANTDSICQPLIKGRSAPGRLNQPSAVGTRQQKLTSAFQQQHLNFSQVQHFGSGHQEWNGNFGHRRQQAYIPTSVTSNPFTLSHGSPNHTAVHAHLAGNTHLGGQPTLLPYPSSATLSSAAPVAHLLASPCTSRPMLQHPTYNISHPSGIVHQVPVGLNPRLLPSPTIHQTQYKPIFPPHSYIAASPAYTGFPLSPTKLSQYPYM

[8] = molecular target: MAP kinase-activated protein kinase 3 (Homo sapiens) (UniProt Q16644); assay: Percentage MAPKAPK3 activity remaining in the presence of 2uM inhibitor
[9] = molecular target: Proto-oncogene tyrosine-protein kinase LCK (Mus musculus) (UniProt P06240); assay: Percentage Lck activity remaining in the presence of 2uM inhibitor
[10] = molecular target: T2, Aurora kinase C (Homo sapiens) (UniProt Q9UQB9); assay: Percentage Aurora C activity remaining in the presence of 2uM inhibitor
T2 sequence (whole entry): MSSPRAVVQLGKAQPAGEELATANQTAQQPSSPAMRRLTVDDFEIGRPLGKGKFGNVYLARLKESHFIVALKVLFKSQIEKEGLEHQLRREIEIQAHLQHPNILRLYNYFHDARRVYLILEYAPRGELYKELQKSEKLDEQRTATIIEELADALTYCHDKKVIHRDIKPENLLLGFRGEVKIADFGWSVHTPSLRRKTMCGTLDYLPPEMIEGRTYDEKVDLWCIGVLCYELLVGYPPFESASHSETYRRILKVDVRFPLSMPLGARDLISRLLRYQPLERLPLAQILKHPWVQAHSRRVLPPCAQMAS

[11] = molecular target: Cyclin-dependent kinase 2/cyclin A (Homo sapiens) (UniProt P24941+P20248+P78396); assay: Percentage CDK2-cyclinA activity remaining in the presence of 2uM inhibitor; type: protein-complex assay
[12] = molecular target: RAC-alpha serine/threonine-protein kinase (Homo sapiens) (UniProt P31749); assay: Percentage PKBalpha activity remaining in the presence of 2uM inhibitor
Chain of RAC-alpha serine/threonine-protein kinase (Homo sapiens) (P31749 whole entry, canonical isoform): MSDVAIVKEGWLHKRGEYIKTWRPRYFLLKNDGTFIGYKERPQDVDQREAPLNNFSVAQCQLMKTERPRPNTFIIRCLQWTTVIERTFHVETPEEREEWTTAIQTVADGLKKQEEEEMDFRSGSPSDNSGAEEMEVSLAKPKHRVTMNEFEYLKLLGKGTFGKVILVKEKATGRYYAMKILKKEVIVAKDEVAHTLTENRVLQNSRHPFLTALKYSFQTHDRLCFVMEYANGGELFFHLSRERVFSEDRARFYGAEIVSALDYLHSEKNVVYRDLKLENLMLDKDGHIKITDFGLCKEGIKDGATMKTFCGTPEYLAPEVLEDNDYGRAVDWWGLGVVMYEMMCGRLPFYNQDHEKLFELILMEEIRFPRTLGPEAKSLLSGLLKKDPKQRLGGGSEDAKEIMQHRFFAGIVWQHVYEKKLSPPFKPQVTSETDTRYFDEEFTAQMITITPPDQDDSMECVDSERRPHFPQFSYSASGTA

[13] = molecular target: Casein kinase I isoform delta (Homo sapiens, UniProt P48730); assay: Percentage CK1delta activity remaining in the presence of 2uM inhibitor
Chain of Casein kinase I isoform delta (P48730 whole entry, looked up, canonical isoform): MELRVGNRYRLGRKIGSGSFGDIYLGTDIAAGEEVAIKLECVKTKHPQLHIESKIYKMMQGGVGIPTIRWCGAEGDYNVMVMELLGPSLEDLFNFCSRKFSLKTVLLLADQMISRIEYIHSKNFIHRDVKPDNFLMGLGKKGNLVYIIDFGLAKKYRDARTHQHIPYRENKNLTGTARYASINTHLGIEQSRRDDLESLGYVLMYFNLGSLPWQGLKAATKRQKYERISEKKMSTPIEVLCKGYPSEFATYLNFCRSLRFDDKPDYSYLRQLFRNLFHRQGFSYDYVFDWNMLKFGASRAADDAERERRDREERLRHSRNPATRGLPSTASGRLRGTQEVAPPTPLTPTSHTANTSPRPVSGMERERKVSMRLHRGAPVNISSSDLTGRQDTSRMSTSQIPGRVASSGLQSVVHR

[14] = molecular target: T3, Eukaryotic elongation factor 2 kinase (Homo sapiens) (UniProt O00418); assay: Percentage EF2K activity remaining in the presence of 3uM inhibitor
T3 sequence (whole entry): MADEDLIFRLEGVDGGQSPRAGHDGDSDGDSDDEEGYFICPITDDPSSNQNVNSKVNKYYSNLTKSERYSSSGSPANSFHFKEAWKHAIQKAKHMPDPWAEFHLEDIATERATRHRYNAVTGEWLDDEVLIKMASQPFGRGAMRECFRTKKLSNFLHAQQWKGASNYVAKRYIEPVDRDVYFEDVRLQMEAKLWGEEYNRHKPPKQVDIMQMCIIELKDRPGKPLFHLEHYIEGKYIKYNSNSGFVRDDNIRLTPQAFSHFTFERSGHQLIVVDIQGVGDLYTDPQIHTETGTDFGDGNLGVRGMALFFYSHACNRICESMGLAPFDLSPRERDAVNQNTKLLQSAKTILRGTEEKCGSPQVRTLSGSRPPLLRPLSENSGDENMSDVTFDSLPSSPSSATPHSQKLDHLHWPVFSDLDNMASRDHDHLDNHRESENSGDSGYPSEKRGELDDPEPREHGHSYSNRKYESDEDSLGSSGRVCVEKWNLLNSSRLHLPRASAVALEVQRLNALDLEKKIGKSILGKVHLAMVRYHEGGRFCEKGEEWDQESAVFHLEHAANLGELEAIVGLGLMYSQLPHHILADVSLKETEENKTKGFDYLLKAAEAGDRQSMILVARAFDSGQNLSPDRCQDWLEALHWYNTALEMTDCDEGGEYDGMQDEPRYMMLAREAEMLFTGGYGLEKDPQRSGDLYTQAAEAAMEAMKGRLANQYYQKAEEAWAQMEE

[15] = molecular target: T1, Mitogen-activated protein kinase 15 (Homo sapiens); assay: Percentage ERK8 activity remaining in the presence of 3uM inhibitor
[16] = molecular target: T4, Mitogen-activated protein kinase 12 (Homo sapiens) (UniProt P53778); assay: Percentage p38-gamma activity remaining in the presence of 3uM inhibitor
T4 sequence (whole entry): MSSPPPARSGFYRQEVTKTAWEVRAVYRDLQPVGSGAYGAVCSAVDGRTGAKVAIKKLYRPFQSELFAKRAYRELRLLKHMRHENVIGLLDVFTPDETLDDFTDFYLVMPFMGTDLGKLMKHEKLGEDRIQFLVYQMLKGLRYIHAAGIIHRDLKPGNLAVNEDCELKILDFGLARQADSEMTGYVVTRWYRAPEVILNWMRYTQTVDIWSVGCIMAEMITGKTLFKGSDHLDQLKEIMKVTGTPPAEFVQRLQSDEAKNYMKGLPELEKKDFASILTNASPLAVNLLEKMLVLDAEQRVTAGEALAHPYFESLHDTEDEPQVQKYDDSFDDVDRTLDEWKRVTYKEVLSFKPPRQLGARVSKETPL

[17] = molecular target: Dual specificity mitogen-activated protein kinase kinase 1 (Homo sapiens) (UniProt Q02750); assay: Percentage MKK1 activity remaining in the presence of 3uM inhibitor
[18] = molecular target: Serine/threonine-protein kinase Nek7 (Homo sapiens) (UniProt Q8TDX7); assay: Percentage NEK7 activity remaining in the presence of 3uM inhibitor

SMILES | Activity [1] [%] | Activity [2] [%] | Activity [3] [%] | Activity [4] [%] | Activity [5] [%] | Activity [6] [%] | Activity [7] [%] | Activity [8] [%] | Activity [9] [%] | Activity [10] [%] | Activity [11] [%] | Activity [12] [%] | Activity [13] [%] | Activity [14] [%] | Activity [15] [%] | Activity [16] [%] | Activity [17] [%] | Activity [18] [%]
Cn1cc(C2=C(c3ccc(Cl)cc3Cl)C(=O)NC2=O)c2ccccc21 | 8 | 12 | 15 | 78 | 85 | 16 | 41 | 103 | 77 | 79 | 52 | 88 | 78 | – | – | – | – | –
Cc1ccc(-c2c(C(=O)CF)n(CCCO)c3ncnc(N)c23)cc1 | – | – | – | – | – | – | – | – | – | – | – | – | – | 97 | 58 | 92 | 80 | 92
